Laboratory results from US20080234241A1, “MELANOGENESIS INHIBITORS AND WHITENING AGENTS COMPRISING ERGOSTEROL DERIVATIVE AND COMPOSITIONS CONTAINING ERGOSTEROL DERIVATIVE” (Sakamoto Bio Co., Ltd., priority 2000, published 2008).

Key:
[1] = tested on: pigment deposition on brachial skin; assay: Measurement of whitening effect: lotion applied to brachial skin after exposure to sun light; format: in vivo, men; details: for Decision (whitening effect): lotion, group of 20 men, applied twice everyday for 5 weeks starting five days after sun exposure; for Whitening effect of lotions, result in words: lotions of Table 2, 20 men, 5 weeks
Protocol: Preparation the Alcohol and Water Phases are Prepared, Mixed, and Dissolved
A test group made up of 20 men was exposed to sun light in summer for four hours per day from […]. for 2 days. Five days after the exposure to the sun light, the lotion described above was applied to the group on the brachial skin twice everyday, once each in the morning and in the evening for 5 weeks.

[2] = tested on: B 16 IOF7 melanoma cells; assay: Melanogenesis inhibitory effect in B16 melanoma cells; format: cell-based, mouse; details: for Minimum concentration for inhibition of melanogenesis: B16 cells cultivated 72 hours at 37° C., melanin from absorbance at 470 nm against methanol-treated control as 100%
Protocol: Melanogenesis inhibitory activity was evaluated using B 16 IOF7 melanoma cells (obtained from the Akita Research Institute of Food and Brewing, Japan), which are melanogenic cells of mouse cells, by application to the cells of an isolated form of Formula (1) described above in a solution diluted with the couture medium, thereby observing the production of melanin. The B16 cells, cultivated to a 70% confluent level in a flask, were washed with PBS and then were treated with a trypsin solution to isolate the cells. The same volume of a serum-containing culture medium (E-MEM, 10% FBS) as that of the trypsin was added to the flask, followed by collecting the cells and centrifuging (800 rpm, 5 min.). After this phase of the process, the number of cells was counted and adjusted to approximately 10^4 cells/ml in the culture medium (E-MEM, 10% FBS). A diluted solution of Formula (1) was prepared by placing 20 μL of sterile PBS on a cell culturing plate (a type for adherent cells) along with 20 μL of a Formula (1) solution, thereby doubling dilution (a final concentration in the culture medium from 100 μg/mL to […]). The control arbutin (a final concentration in the culture medium from 140 μg/mL to 0.22 μg/mL) in methanol was similarly diluted.
Then 80 μL of the cell suspension was added to the diluted sample solution (20 μL) on the plate, and the mixture was cultivated in a CO2 incubator at 37° C. for 72 hours. Melanogenesis in the cells was observed under a microscope. In cases where melanogenesis was confirmed microscopically, the culture medium was removed, and the cell layer was treated with 300 μL of 1N NaOH to dissolve the melanin, where the concentration of the melanin formed was determined from measurement of absorbance at 470 nm. The levels of Formula (1) and arbutin used were varied to determine their minimum concentrations needed for inhibiting melanogenesis, against the value of the methanol-treated control as 100%.

Row | Structure (SMILES) | Decision (whitening effect) ([1]; content 1.0 % w/w) | Whitening effect of lotions, result in words [1] | Microscopic observation of melanogenesis in B16 cells ([2]; 72 hours culture, compared with arbutin) | Minimum concentration for inhibition of melanogenesis [2] [µg/mL] | Decision (whitening effect) ([1]; content 0.2 % w/w)
1 | Oc1ccc(O)cc1 [hydroquinone, reference compound] | C (6 to 10 out of the group rated “Effective” or “More effective”) | nor Comparative example 2 (hydroquinone) was effective |  |  | 
2 | CC(C)[C@@H](C)/C=C/[C@@H](C)[C@H]1CC[C@@H]2[C@]1(C)CCC1[C@]23C=C[C@]2(C[C@@H](O)CC[C@]12C)OO3 (stereo partly drawn) [Formula (1), 5α,8α-epidioxy-(22E,24R)-orgosta-6,22-dien-3β-ol] | A (16 or more out of the group rated “Effective” or “More effective”) | prevented pigment deposition and gave a whitening effect | inhibited more extensively by Formula (1) than by arbutin | 0.045 | B (11 to 15 out of the group rated “Effective” or “More effective”)
3 | OC[C@H]1O[C@@H](Oc2ccc(O)cc2)[C@H](O)[C@@H](O)[C@@H]1O [Arbutin, arbutin, reference compound] |  |  |  | 0.88 | 
